Assays:
Aurora-A = biological target: T1, Aurora-A (Mus musculus, UniProt P97477); experiment: Aurora-A kinase screening assay (33P-ATP FlashPlate); assay type: biochemical; conditions: 10 μM ATP, 1 hr at 30° C;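 further: His-tagged mouse Aurora-A phosphorylating a biotinylated peptide captured on streptavidin plates, read as 33P uptake by scintillation counting, 1% DMSO, inhibition scaled between per-plate maximum and minimum signals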
T1 construct: polyhistidine (N)
T1 sequence (P97477 1-395): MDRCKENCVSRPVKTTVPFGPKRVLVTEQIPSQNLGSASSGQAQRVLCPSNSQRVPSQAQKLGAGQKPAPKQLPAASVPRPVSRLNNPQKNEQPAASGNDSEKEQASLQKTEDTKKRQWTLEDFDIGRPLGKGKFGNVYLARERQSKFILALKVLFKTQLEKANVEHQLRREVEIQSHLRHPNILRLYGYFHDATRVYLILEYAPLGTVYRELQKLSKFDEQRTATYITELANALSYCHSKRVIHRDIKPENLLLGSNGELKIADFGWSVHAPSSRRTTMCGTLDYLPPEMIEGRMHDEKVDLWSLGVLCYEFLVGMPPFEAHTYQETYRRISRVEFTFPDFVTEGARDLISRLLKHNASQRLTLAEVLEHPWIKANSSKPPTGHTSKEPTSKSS

A375 malignant melanoma = experiment: Cell Proliferation Inhibition Assay (14C-thymidine incorporation), A375; assay type: cell-based; conditions: Homo sapiens, A-375, A375 cells;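 further: proliferation measured by radiolabelled thymidine uptake into new DNA, counted in scintillating 96-well plates, compound-treated wells compared with DMSO-only control wells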
[1] = tested on: HeLa cervical adenocarcinoma; experiment: Cell Proliferation Inhibition Assay (14C-thymidine incorporation), HeLa; assay type: cell-based; conditions: Homo sapiens, HeLa, HeLa cells;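 further: test compound in DMSO added to cells seeded in scintillating 96-well plates, DMSO-only wells as control, uptake of methyl 14C-thymidine into new DNA counted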
RET = biological target: T2, RET (Homo sapiens, UniProt P07949); experiment: RET kinase screening assay (33P-ATP FlashPlate); assay type: biochemical; conditions: human RET kinase domain; 10 μM ATP; 1 hr at 30° C;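 further: biotinylated peptide substrate captured on streptavidin FlashPlate, 33P phosphate transfer read by scintillation counting, 1% DMSO, lower incorporation means inhibition, percent relative to per-plate maximum and minimum signals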
T2 construct: polyhistidine (N)
T2 sequence (P07949 658-1114 limits assumed): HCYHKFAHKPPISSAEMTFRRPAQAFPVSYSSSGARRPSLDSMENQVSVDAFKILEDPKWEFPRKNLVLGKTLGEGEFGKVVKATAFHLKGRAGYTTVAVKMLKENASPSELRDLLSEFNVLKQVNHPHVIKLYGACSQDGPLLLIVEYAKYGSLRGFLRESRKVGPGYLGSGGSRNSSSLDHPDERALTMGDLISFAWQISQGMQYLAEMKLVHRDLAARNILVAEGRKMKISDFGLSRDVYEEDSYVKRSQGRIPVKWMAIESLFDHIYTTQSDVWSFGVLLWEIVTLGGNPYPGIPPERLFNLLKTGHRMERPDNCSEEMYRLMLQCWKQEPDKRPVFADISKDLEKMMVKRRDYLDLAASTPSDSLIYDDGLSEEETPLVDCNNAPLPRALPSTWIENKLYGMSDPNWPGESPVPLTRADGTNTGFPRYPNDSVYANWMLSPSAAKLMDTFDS

VEGF-R2 = biological target: T3, VEGF-R2 (Rattus norvegicus, UniProt O08775); experiment: VEGF-R2 kinase screening assay (33P-ATP FlashPlate); assay type: biochemical; conditions: rat VEGF-R2 kinase domain; 10 μM ATP; 1 hr at 30° C;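 further: Read-out is ³³P incorporation from ³³P-γ-ATP into biotinylated peptide substrate captured on streptavidin FlashPlate, counted by scintillation, 1% DMSO final, inhibition scaled between per-plate maximum and minimum signals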
T3 construct: polyhistidine (N)
T3 sequence (O08775 786-1343): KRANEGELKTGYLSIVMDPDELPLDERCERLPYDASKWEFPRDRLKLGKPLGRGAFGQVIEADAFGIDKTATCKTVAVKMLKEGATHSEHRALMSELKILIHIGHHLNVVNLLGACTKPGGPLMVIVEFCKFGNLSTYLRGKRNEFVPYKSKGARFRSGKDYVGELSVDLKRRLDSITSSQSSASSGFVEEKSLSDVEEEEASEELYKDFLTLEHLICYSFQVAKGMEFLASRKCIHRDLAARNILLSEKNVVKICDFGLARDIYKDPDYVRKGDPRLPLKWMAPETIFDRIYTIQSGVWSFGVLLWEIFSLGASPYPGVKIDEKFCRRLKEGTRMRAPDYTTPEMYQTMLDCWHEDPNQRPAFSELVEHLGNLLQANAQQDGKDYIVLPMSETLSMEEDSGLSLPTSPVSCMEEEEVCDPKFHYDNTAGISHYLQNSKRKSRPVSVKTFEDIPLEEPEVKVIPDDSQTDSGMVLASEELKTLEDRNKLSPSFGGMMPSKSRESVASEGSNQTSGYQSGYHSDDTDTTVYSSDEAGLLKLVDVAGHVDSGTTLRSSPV

Lyn kinase = biological target: T4, Lyn kinase (Homo sapiens, UniProt P07948); experiment: Lyn Kinase Assay; assay type: biochemical; conditions: 5 μM ATP
T4 construct: purchased Upstate Biotechnology, Lake Placid, N.Y
T4 sequence (P07948 whole entry): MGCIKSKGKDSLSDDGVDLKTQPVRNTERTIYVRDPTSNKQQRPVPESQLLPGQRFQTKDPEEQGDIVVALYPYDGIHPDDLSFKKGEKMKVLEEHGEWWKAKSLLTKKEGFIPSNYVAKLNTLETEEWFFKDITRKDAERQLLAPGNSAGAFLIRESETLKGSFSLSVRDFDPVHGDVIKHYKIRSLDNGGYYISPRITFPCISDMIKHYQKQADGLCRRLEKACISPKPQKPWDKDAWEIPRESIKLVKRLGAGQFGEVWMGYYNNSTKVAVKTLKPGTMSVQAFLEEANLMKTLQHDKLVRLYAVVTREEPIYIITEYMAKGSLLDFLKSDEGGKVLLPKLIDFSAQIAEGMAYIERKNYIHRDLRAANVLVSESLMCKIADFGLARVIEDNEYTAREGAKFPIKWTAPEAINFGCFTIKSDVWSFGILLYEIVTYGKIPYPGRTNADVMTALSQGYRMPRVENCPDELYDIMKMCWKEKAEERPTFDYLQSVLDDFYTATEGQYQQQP
Procedure: Test compound in 100% DMSO (0.5 μL) was added to the appropriate wells. Diluted Lyn kinase (human) (Accession Number EMBL M16038) (Upstate Biotechnology, Lake Placid, N.Y.) (diluted in a buffer consisting of 50 mM Tris at pH 7.5, 0.1 mM EGTA, Sodium Vanadate (0.1 mM), β-mercaptoethanol (0.1%) and 1 mg/mL bovine serum albumin) (2.5 μL) was added to the wells to initiate the reactions.
The reaction plates were incubated at 30° C. for 40 min. The reaction was terminated by the addition of a 3% phosphoric acid solution (5 μL). The reaction product (10 μL) was spotted onto a P30 filtermat and washed for 5 minutes in phosphoric acid (75 mM). The wash sequence was repeated two more times, followed with one final wash in methanol. The plates were then dried, sealed and read on the TopCount scintillation counter after adding 30 μL scintillation fluid.
(§1) A maximum and minimum signal for the assay was determined on each plate. The percent inhibition of a test compound was calculated according to the formula: […]
For a series of test concentrations, the IC50 was derived by graphing percent inhibition against the log of the concentrations tested for a given compound with results shown in Table 3
(§2) For compounds with multiple values, each value represents a separate assay result.

HCT-116 colon carcinoma = experiment: Cell Proliferation Inhibition Assay (14C-thymidine incorporation), HCT-116; assay type: cell-based; conditions: Homo sapiens, HCT-116, HCT-116 cells;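 further: proliferation measured as methyl 14C-thymidine uptake into new DNA, counted in 96-well scintillating microplates, compared with DMSO-only control wells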
CDK1 = biological target: T5, CDK1 (Homo sapiens, UniProt P06493); experiment: CDK-1 kinase screening assay (33P-ATP FlashPlate); assay type: biochemical; conditions: human CDK1 with cyclin B; 10 μM ATP; 1 hr at 30° C
T5 construct: purchased New England Biolabs, Beverly, Mass; 6020; host or cells: insect cells
T5 sequence (P06493 whole entry): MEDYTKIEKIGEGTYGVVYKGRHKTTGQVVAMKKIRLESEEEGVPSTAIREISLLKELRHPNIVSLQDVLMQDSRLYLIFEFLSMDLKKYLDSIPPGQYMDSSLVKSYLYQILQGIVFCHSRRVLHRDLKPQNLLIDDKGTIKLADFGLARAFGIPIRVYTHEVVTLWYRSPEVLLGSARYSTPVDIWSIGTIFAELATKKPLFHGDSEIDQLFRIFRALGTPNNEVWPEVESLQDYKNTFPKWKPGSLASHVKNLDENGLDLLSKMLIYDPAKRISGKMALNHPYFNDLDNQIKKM
T5 sequence (P14635 whole entry partner): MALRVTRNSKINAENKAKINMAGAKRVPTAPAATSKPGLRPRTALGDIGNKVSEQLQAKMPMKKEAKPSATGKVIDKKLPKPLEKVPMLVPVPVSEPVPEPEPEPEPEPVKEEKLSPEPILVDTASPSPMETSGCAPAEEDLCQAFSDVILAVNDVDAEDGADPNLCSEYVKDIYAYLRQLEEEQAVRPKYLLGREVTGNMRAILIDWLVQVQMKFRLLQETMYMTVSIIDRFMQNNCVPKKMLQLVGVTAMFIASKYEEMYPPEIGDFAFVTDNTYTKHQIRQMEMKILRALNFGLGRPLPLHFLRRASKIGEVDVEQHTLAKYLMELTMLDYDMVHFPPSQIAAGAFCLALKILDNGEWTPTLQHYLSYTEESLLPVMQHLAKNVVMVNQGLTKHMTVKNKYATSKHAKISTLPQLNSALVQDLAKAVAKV

c-Src kinase = biological target: T6, c-Src kinase (Homo sapiens, UniProt P12931); experiment: c-Src Kinase Assay; assay type: biochemical; conditions: 5 μM ATP
T6 construct: purchased Upstate Biotechnology, Lake Placid, N.Y
T6 sequence (P12931 whole entry): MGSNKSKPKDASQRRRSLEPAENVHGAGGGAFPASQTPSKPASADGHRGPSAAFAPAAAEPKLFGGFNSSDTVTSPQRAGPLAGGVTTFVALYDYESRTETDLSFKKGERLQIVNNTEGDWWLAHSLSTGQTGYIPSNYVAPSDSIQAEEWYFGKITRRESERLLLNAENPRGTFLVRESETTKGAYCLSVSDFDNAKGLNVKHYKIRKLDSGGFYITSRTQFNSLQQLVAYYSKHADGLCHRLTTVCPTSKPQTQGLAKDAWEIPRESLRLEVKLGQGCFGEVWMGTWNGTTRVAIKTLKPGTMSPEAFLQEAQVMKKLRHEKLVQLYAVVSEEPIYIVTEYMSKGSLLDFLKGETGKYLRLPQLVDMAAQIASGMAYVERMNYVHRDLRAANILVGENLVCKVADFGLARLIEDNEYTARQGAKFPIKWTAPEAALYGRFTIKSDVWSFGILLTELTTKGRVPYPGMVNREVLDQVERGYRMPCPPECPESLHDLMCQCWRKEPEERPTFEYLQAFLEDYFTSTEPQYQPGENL
Procedure: A mixture of a 10× kinase buffer (80 mM MOPS at pH 7.0, 2 mM EDTA and 100 mM Magnesium Chloride), ATP (5 μM final from a 10 mM stock), a Cdc2 peptide […] (100 μM final from a 2.5 mM stock), γ-^33P ATP (10 μCi/μL stock) and water (for a total of 20 μL/well) was added to each well of a Streptavidin Flashplate.
Test compound in 100% DMSO (0.5 μL) was added to the appropriate wells. Diluted c-Src kinase (human) (Accession Number SWISS-PROT P12931) (Upstate Biotechnology, Lake Placid, N.Y.) (diluted in a buffer consisting of 20 mM MOPS at pH 7.0, 1 mM EDTA, β-mercaptoethanol (0.1%), Brij-35 (0.01%), glycerol (5%), and 1 mg/mL bovine serum albumin) (2.5 μL) was added to the wells to initiate the reactions. The reaction plates were incubated at 30° C. for 40 min. The reaction was terminated by the addition of a 3% phosphoric acid solution (5 μL). The reaction product (10 μL) was spotted onto a P30 filtermat and washed for 5 minutes in phosphoric acid (75 mM). The wash sequence was repeated two more times, followed with one final wash in methanol. The plates were then dried, sealed and read on the TopCount scintillation counter after adding 30 μL scintillation fluid.
as §1
For a series of test concentrations, the IC50 was derived by graphing percent inhibition against the log of the concentrations tested for a given compound with results shown in Table 2
as §2

HER2 = biological target: T7, HER2 (Homo sapiens, UniProt P04626); experiment: HER2 kinase screening assay (33P-ATP FlashPlate); assay type: biochemical; conditions: GST-HIS6 HER-2 aa 679 to 1255; 10 μM ATP; 1 hr at 30° C;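 further: Biotin-poly(GT) 4:1 peptide captured on streptavidin FlashPlate, 33P transfer from γ-ATP read by scintillation counting, lower incorporation means inhibition, 1% DMSO final, 100 µL reaction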
T7 construct: GST (Glutathione-S-Transferase) (N); HIS6 (N); thrombin cleavage site (N); purchased Proqinase, Freiburg, Germany
T7 sequence (P04626 679-1255): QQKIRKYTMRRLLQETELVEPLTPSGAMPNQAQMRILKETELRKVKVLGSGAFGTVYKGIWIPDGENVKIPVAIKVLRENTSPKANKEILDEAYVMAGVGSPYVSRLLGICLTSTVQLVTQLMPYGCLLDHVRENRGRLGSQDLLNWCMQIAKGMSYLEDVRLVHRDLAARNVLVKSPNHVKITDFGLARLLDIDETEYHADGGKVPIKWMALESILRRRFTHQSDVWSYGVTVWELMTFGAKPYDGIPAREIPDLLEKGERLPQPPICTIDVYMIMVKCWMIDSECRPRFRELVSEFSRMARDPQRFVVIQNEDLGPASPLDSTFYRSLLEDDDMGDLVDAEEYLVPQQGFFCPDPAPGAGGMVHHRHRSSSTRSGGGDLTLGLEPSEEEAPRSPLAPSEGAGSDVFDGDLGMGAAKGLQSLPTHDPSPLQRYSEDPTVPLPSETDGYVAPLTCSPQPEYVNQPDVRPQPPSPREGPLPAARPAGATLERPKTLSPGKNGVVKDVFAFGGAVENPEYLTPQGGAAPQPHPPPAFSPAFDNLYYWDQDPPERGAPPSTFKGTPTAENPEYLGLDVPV

| IC50 (Aurora-A) | IC50 (A375 malignant melanoma) | IC50 [1] | IC50 (RET) | IC50 (VEGF-R2) | IC50 (Lyn kinase) | IC50 (HCT-116 colon carcinoma) | IC50 (CDK1) | IC50 (c-Src kinase) | IC50 (HER2) | Structure (SMILES) |
| --- | --- | --- | --- | --- | --- | --- | --- | --- | --- | --- |
| 40 nM | 28500 nM | 7520 nM | > 100000 nM | > 100 nM | 1.33 nM | > 10000 nM | 34.9 nM | 0.653 nM | 31000 nM | NC1CCC(NC(=O)c2cccc3[nH]c(-c4n[nH]c5ncc(-c6cncc7ccccc67)cc45)nc23)CC1 (centres unmarked) [Cpd 45, 2-(5-isoquinolin-4-yl-1H-pyrazolo[3,4-b]pyridin-3-yl)-1H-benzoimidazole-4-carboxylic acid (4-amino-cyclohexyl)-amide] |
| 230 nM | 194 nM | 159 nM | ~10000 nM | 702 nM | 6.31 nM | 225 nM | 80.6 nM | 1.4 nM | ~100000 nM | Cc1ccccc1NC(=O)c1cccc2[nH]c(-c3n[nH]c4ncc(-c5cncc6ccccc56)cc34)nc12 [Cpd 46, 2-(5-isoquinolin-4-yl-1H-pyrazolo[3,4-b]pyridin-3-yl)-1H-benzoimidazole-4-carboxylic acid o-tolylamide] |
| ~1000 nM | 188 nM | 300 nM | > 10000 nM | ~10 nM | 23.6 nM | 488 nM | 18.5 nM | 5 nM | > 100000 nM | O=C(Nc1cccnc1)c1cccc2[nH]c(-c3n[nH]c4ncc(-c5cncc6ccccc56)cc34)nc12 [Cpd 48, 2-(5-isoquinolin-4-yl-1H-pyrazolo[3,4-b]pyridin-3-yl)-1H-benzoimidazole-4-carboxylic acid pyridin-3-ylamide] |
| 154 nM | 302 nM | 334 nM | ~1000 nM | > 10000 nM | 4.35 nM | 426 nM | 64.8 nM | 1.13 nM | > 100000 nM | CN(C)c1ccc(NC(=O)c2cccc3[nH]c(-c4n[nH]c5ncc(-c6cncc7ccccc67)cc45)nc23)cc1 [Cpd 49, 2-(5-isoquinolin-4-yl-1H-pyrazolo[3,4-b]pyridin-3-yl)-1H-benzoimidazole-4-carboxylic acid (4-dimethylamino-phenyl)-amide] |
| 168 nM | 242 nM | 258 nM | > 10000 nM | > 100000 nM | 5.21 nM | 455 nM | 40.6 nM | 1.04 nM | > 100000 nM | CCN(CC)c1ccc(NC(=O)c2cccc3[nH]c(-c4n[nH]c5ncc(-c6cncc7ccccc67)cc45)nc23)c(C)c1 [Cpd 50, 2-(5-isoquinolin-4-yl-1H-pyrazolo[3,4-b]pyridin-3-yl)-1H-benzoimidazole-4-carboxylic acid (4-diethylamino-2-methyl-phenyl)-amide] |
| 3620 nM | 247 nM | 454 nM | ~10000 nM | 1030 nM | 299 nM | 345 nM | 24.6 nM | 570 nM | > 100000 nM | CCN(CC)Cc1cccc2[nH]c(-c3n[nH]c4ncc(-c5cccnc5)cc34)nc12 [Cpd 52, diethyl-[2-(5-pyridin-3-yl-1H-pyrazolo[3,4-b]pyridin-3-yl)-1H-benzoimidazol-4-ylmethyl]-amine] |
| > 1000 nM | 268 nM | 459 nM | ~1000 nM | 639 nM | 1080 nM | 313 nM | 2.54 nM | 886 nM | > 100000 nM | CNCc1cncc(-c2cnc3[nH]nc(-c4nc5c(COC)cccc5[nH]4)c3c2)c1 [Cpd 56, {5-[3-(4-methoxymethyl-1H-benzoimidazol-2-yl)-1H-pyrazolo[3,4-b]pyridin-5-yl]-pyridin-3-ylmethyl}-methyl-amine] |
| 12400 nM | 168 nM | 2700 nM | > 10000 nM | 3900 nM | 529 nM | 459 nM | 339 nM | 653 nM | > 100000 nM | COCc1cccc2[nH]c(-c3n[nH]c4ncc(-c5cncc(CNC(C)C)c5C)cc34)nc12 [Cpd 58, isopropyl-{5-[3-(4-methoxymethyl-1H-benzoimidazol-2-yl)-1H-pyrazolo[3,4-b]pyridin-5-yl]-4-methyl-pyridin-3-ylmethyl}-amine] |
| ~10000 nM | 11.3 nM | 1570 nM | > 100000 nM | 160 nM | 4060 nM | 26.1 nM | 80.3 nM | 621 nM | > 100000 nM | COCc1cccc2[nH]c(-c3n[nH]c4ncc(-c5cncc(OC)c5)cc34)nc12 [Cpd 64, 3-(4-methoxymethyl-1H-benzoimidazol-2-yl)-5-(5-methoxy-pyridin-3-yl)-1H-pyrazolo[3,4-b]pyridine] |
| > 1000 nM | 22.6 nM | 3090 nM | > 100000 nM | 115 nM | 277 nM | 62 nM | > 1000 nM | 315 nM | > 100000 nM | COCc1cccc2[nH]c(-c3n[nH]c4ncc(-c5ccncc5)cc34)nc12 [Cpd 65, 3-(4-methoxymethyl-1H-benzoimidazol-2-yl)-5-pyridin-4-yl-1H-pyrazolo[3,4-b]pyridine] |
| > 1000 nM | 18.5 nM | 1730 nM | > 100000 nM | ~1000 nM | 2890 nM | 77 nM | > 10000 nM | 597 nM | > 100000 nM | COCc1cccc2[nH]c(-c3n[nH]c4ncc(-c5ccc(N6CCNCC6)nc5)cc34)nc12 [Cpd 69, 3-(4-methoxymethyl-1H-benzoimidazol-2-yl)-5-(6-piperazin-1-yl-pyridin-3-yl)-1H-pyrazolo[3,4-b]pyridine] |
